Measured values published in ChEMBL document CHEMBL1770056, “2-Arylimidazo[2,1-b]benzothiazoles: a new family of amyloid binding agents with potential for PET and SPECT imaging of Alzheimer's brain” (Bioorg Med Chem Lett, 2011).

Experiment: Displacement of [3H]BTA-1 from amyloid beta 1 to 40 by competitive binding assay

Compound	Ki
CNc1ccc(-c2cn3c(n2)sc2cc(F)ccc23)cc1	38.1 nM
Cc1ccc2c(c1)sc1nc(-c3ccc(I)cc3)cn12	17.7 nM
CN(C)c1ccc(-c2cn3c(n2)sc2cc(F)ccc23)cc1	42.9 nM
COc1ccc2c(c1)sc1nc(-c3ccc(N)cc3)cn12	29.8 nM
Nc1ccc(-c2cn3c(n2)sc2cc(F)ccc23)cc1	133 nM
COc1ccc2c(c1)sc1nc(-c3ccc(N(C)C)cc3)cn12	58.6 nM
Brc1ccc2c(c1)sc1nc(-c3ccc(I)cc3)cn12	21.1 nM
Fc1ccc2c(c1)sc1nc(-c3ccc(I)cc3)cn12	41.9 nM
[11CH3]Nc1ccc(-c2nc3ccc(O)cc3s2)cc1 [PITTSBURGH COMPOUND B]	11 nM
COc1ccc2c(c1)sc1nc(-c3ccc(N[11CH3])cc3)cn12	6.09 nM
CN(C)c1ccc(-c2cn3c(n2)sc2cc(Br)ccc23)cc1	43.4 nM
Nc1ccc(-c2cn3c(n2)sc2cc(Br)ccc23)cc1	28.8 nM
Cc1ccc2c(c1)sc1nc(-c3ccc(Br)cc3)cn12	26 nM
CNc1ccc(-c2cn3c(n2)sc2cc(Br)ccc23)cc1	34.5 nM
COc1ccc2c(c1)sc1nc(-c3ccc(Br)cc3)cn12	9.4 nM
CNc1ccc(-c2nc3ccc(O)cc3s2)cc1 [PITTSBURGH COMPOUND B UNLABELLED]	4.5 nM
COc1ccc2c(c1)sc1nc(-c3ccc([123I])cc3)cn12	10.9 nM

Experiment: Binding affinity to amyloid beta 1 to 40

Compound	Kd
[11CH3]Nc1ccc(-c2nc3ccc(O)cc3s2)cc1 [PITTSBURGH COMPOUND B]	10 nM
CN(C)c1ccc(-c2cn3cc([123I])ccc3n2)cc1	10 nM
